{"source": "patent US7368249B2", "about": "“Methods and compositions for evaluation and modulation of fertility” (The Curators of the University of Missouri, priority 2003, dated 2008)", "origin": "cited, not measured here", "tested_on": "maturing reticulocytes", "conditions": "presence vs absence of ETYA", "data": [{"smiles": "CCCCCC#CCC#CCC#CCC#CCCCC(=O)O", "note": "[ETYA, 5,8,11,14-eicosatetraynoic acid]", "values": [{"measurement": "mitochondrial degradation in maturing reticulocytes", "result": "delayed"}]}]}
